Experimental data as given in ChEMBL document CHEMBL3286384, “Synthesis, cytotoxicity, antimicrobial and anti-biofilm activities of novel pyrazolo[3,4-b]pyridine and pyrimidine functionalized 1,2,3-triazole derivatives” (Bioorg Med Chem Lett, 2014).
In brackets after ≈: the same amount, converted by molar mass. Activity calls are given as the source filed them. The rule behind the calls is not given here.

Columns and labels:
[1] = system: A549; assay: Cytotoxicity against human A549 cells after 24 hrs by MTT assay; type: functional, cell-based; details: A549, 24 h
[2] = system: DU-145; assay: Cytotoxicity against human DU145 cells after 24 hrs by MTT assay; type: functional, cell-based; details: DU-145, 24 h
[3] = system: MCF7; assay: Cytotoxicity against human MCF7 cells after 24 hrs by MTT assay; type: functional, cell-based; details: MCF7, 24 h
[4] = system: HeLa; assay: Cytotoxicity against human HeLa cells after 24 hrs by MTT assay; type: functional, cell-based
[5] = system: Staphylococcus aureus; assay: Antimicrobial activity against Staphylococcus aureus MLS-16 MTCC 2940 after 24 hrs by well diffusion method; type: functional
[6] = system: Staphylococcus aureus; assay: Antimicrobial activity against Staphylococcus aureus MTCC 96 after 24 hrs by well diffusion method; type: functional
[7] = system: Pseudomonas aeruginosa; assay: Antimicrobial activity against Pseudomonas aeruginosa MTCC 2453 after 24 hrs by well diffusion method; type: functional
[8] = system: Bacillus subtilis; assay: Antimicrobial activity against Bacillus subtilis MTCC 121 after 24 hrs by well diffusion method; type: functional
[9] = system: Escherichia coli; assay: Antimicrobial activity against Escherichia coli MTCC 739 after 24 hrs by well diffusion method; type: functional
[10] = system: Raoultella planticola; assay: Antimicrobial activity against Klebsiella planticola MTCC 530 after 24 hrs by well diffusion method; type: functional
[11] = system: Candida albicans; details: MTCC 3017
Description: (§1) Antimicrobial activity against Candida albicans MTCC 3017 after 24 hrs by well diffusion method

[12] = system: Micrococcus luteus; assay: Antimicrobial activity against Micrococcus luteus MTCC 2470 after 24 hrs by well diffusion method; type: functional
[13] = system: Micrococcus luteus; assay: Bactericidal activity against Micrococcus luteus MTCC 2470 after 24 hrs by agar plating method; type: functional; details: MTCC 2470, 24 h
[14] = system: Staphylococcus aureus; assay: Bactericidal activity against Staphylococcus aureus MTCC 96 after 24 hrs by agar plating method; type: functional; details: MTCC 96, 24 h
[15] = system: Raoultella planticola; assay: Bactericidal activity against Klebsiella planticola MTCC 530 after 24 hrs by agar plating method; type: functional; details: MTCC 530, 24 h
[16] = system: Bacillus subtilis; assay: Bactericidal activity against Bacillus subtilis MTCC 121 after 24 hrs by agar plating method; type: functional; details: MTCC 121, 24 h
[17] = system: Escherichia coli; assay: Bactericidal activity against Escherichia coli MTCC 739 after 24 hrs by agar plating method; type: functional; details: MTCC 739, 24 h
[18] = system: Micrococcus luteus; assay: Antimicrobial activity against Micrococcus luteus MTCC 2470 assessed as inhibition of biofilm formation after 24 hrs by crystal violet staining-based assay; type: functional, organism-based; details: MTCC 2470, 24 h
[19] = system: Pseudomonas aeruginosa; assay: Bactericidal activity against Pseudomonas aeruginosa MTCC 2453 after 24 hrs by agar plating method; type: functional; details: MTCC 2453, 24 h
[20] = system: Staphylococcus aureus; assay: Antimicrobial activity against Staphylococcus aureus MLS-16 MTCC 2940 assessed as inhibition of biofilm formation after 24 hrs by crystal violet staining-based assay; type: functional, organism-based; details: MLS-16 MTCC 2940, 24 h
[21] = system: Staphylococcus aureus; assay: Bactericidal activity against Staphylococcus aureus MLS-16 MTCC 2940 after 24 hrs by agar plating method; type: functional; details: MLS-16 MTCC 2940, 24 h
[22] = system: Staphylococcus aureus; assay: Antimicrobial activity against Staphylococcus aureus MTCC 96 assessed as inhibition of biofilm formation after 24 hrs by crystal violet staining-based assay; type: functional, organism-based; details: MTCC 96, 24 h
[23] = system: Raoultella planticola; assay: Antimicrobial activity against Klebsiella planticola MTCC 530 assessed as inhibition of biofilm formation after 24 hrs by crystal violet staining-based assay; type: functional, organism-based; details: MTCC 530, 24 h
[24] = system: Pseudomonas aeruginosa; assay: Antimicrobial activity against Pseudomonas aeruginosa MTCC 2453 assessed as inhibition of biofilm formation after 24 hrs by crystal violet staining-based assay; type: functional, organism-based; details: MTCC 2453, 24 h
[25] = system: Candida albicans; assay: microbe, parasite or virus in culture; details: MTCC 3017, 24 h
Description: as §1

| Structure (SMILES) | MIC ([5]; MLS-16 MTCC 2940, 24 h) [µg/mL] | MIC ([6]; MTCC 96, 24 h) [µg/mL] | MIC ([7]; MTCC 2453, 24 h) [µg/mL] | MIC ([8]; MTCC 121, 24 h) [µg/mL] | MIC ([9]; MTCC 739, 24 h) [µg/mL] | MIC [11] | MIC ([12]; MTCC 2470, 24 h) [µg/mL] | IC50 [1] [µM] | IC50 [2] [µM] | IC50 [3] [µM] | IC50 [4] [µM] | MIC ([10]; MTCC 530, 24 h) [µg/mL] | further results |
| --- | --- | --- | --- | --- | --- | --- | --- | --- | --- | --- | --- | --- | --- |
| Nc1n[nH]c2nc(C(F)(F)F)ccc12 |  |  |  |  |  |  |  | 22.4 | 29.1 | 58.4 | 60.2 |  |  |
| CCCCCCCCn1nc(-n2cc(Cn3c(N)nc(C(F)(F)F)cc3=O)nn2)c2ccc(C(F)(F)F)nc21 |  |  |  |  |  |  |  | 10.1 | 12.2 | 11.3 | 9.4 |  |  |
| CCCCCCCCCCn1nc(-n2cc(COc3cc(C(F)(F)F)nc(N)n3)nn2)c2ccc(C(F)(F)F)nc21 | 7.8 (≈ 13.3 µM) | 7.8 (≈ 13.3 µM) | 7.8 (≈ 13.3 µM) | 15.6 (≈ 26.6 µM) | 7.8 (≈ 13.3 µM) | inactive | 15.6 (≈ 26.6 µM) | 4.2 | 5.8 | 37.2 | 34.3 | 7.8 (≈ 13.3 µM) | MBC [13]: 15.6 µg/mL (≈ 26.6 µM); MBC [14]: 15.6 µg/mL (≈ 26.6 µM); MBC [15]: 7.8 µg/mL (≈ 13.3 µM); MBC [16]: 31.2 µg/mL (≈ 53.3 µM); MBC [17]: 15.6 µg/mL (≈ 26.6 µM); IC50 [18]: 3.9 µg/mL (≈ 6.66 µM); MBC [19]: 15.6 µg/mL (≈ 26.6 µM); IC50 [20]: 3.9 µg/mL (≈ 6.66 µM); MBC [21]: 7.8 µg/mL (≈ 13.3 µM); IC50 [22]: 7.8 µg/mL (≈ 13.3 µM); IC50 [23]: 3.9 µg/mL (≈ 6.66 µM); IC50 [24]: 3.9 µg/mL (≈ 6.66 µM) |
| CCn1nc(-n2cc(Cn3c(N)nc(C(F)(F)F)cc3=O)nn2)c2ccc(C(F)(F)F)nc21 |  |  |  |  |  |  |  | > 100 | > 100 | 95.2 | 62.3 |  |  |
| CCOC(=O)Cn1nc(-n2cc(Cn3c(N)nc(C(F)(F)F)cc3=O)nn2)c2ccc(C(F)(F)F)nc21 |  |  |  |  |  |  |  | 16.2 | 18.3 | 12.2 | 11.4 |  |  |
| Clc1ccc(COC(Cn2ccnc2)c2ccc(Cl)cc2Cl)c(Cl)c1 (configuration not stated) [MICONAZOLE] |  |  |  |  |  |  |  |  |  |  |  |  | MIC [5]: inactive; MIC [6]: inactive; MIC [7]: inactive; MIC [8]: inactive; MIC [9]: inactive; MIC [10]: inactive; MIC [12]: inactive; MIC [25]: 7.8 µg/mL (≈ 18.7 µM) |

The next lines start with results.

| MIC ([5]; MLS-16 MTCC 2940, 24 h) [µg/mL] | MIC ([6]; MTCC 96, 24 h) [µg/mL] | MIC ([7]; MTCC 2453, 24 h) [µg/mL] | MIC ([8]; MTCC 121, 24 h) [µg/mL] | MIC ([9]; MTCC 739, 24 h) [µg/mL] | MIC [11] | MIC ([12]; MTCC 2470, 24 h) [µg/mL] | Structure (SMILES) | IC50 [1] [µM] | IC50 [2] [µM] | IC50 [3] [µM] | IC50 [4] [µM] | MIC ([10]; MTCC 530, 24 h) [µg/mL] | further results |
| --- | --- | --- | --- | --- | --- | --- | --- | --- | --- | --- | --- | --- | --- |
| > 250 | > 250 | > 250 | > 250 | > 250 | inactive | > 250 | CCCCCCCCn1nc(-n2cc(COc3cc(C(F)(F)F)nc(N)n3)nn2)c2ccc(C(F)(F)F)nc21 | 5.7 | 6.3 | 24.7 | 22.7 | > 250 |  |
| 7.8 (≈ 14.7 µM) | 15.6 (≈ 29.4 µM) | 15.6 (≈ 29.4 µM) | 15.6 (≈ 29.4 µM) | 15.6 (≈ 29.4 µM) | inactive | > 250 | CCOC(=O)Cn1nc(-n2cc(COc3cc(C(F)(F)F)nc(N)n3)nn2)c2ccc(C(F)(F)F)nc21 | 16.3 | 18.2 | 12.4 | 9.8 | 7.8 (≈ 14.7 µM) | MBC [13]: 15.6 µg/mL (≈ 29.4 µM); MBC [14]: 15.6 µg/mL (≈ 29.4 µM); MBC [15]: 15.6 µg/mL (≈ 29.4 µM); MBC [16]: 15.6 µg/mL (≈ 29.4 µM); MBC [17]: 31.2 µg/mL (≈ 58.7 µM); IC50 [18]: 7.8 µg/mL (≈ 14.7 µM); MBC [19]: 15.6 µg/mL (≈ 29.4 µM); IC50 [20]: 7.8 µg/mL (≈ 14.7 µM); MBC [21]: 15.6 µg/mL (≈ 29.4 µM); IC50 [22]: 3.9 µg/mL (≈ 7.34 µM); IC50 [23]: 3.9 µg/mL (≈ 7.34 µM); IC50 [24]: 15.6 µg/mL (≈ 29.4 µM) |
| > 250 | > 250 | > 250 | > 250 | > 250 | inactive | > 250 | CCn1nc(-n2cc(COc3cc(C(F)(F)F)nc(N)n3)nn2)c2ccc(C(F)(F)F)nc21 | 25.4 | 27.7 | > 100 | > 100 | > 250 |  |
| > 250 | > 250 | > 250 | > 250 | > 250 | inactive | 7.8 (≈ 16.1 µM) | C=CCn1nc(-n2cc(COc3cc(C(F)(F)F)nc(N)n3)nn2)c2ccc(C(F)(F)F)nc21 | > 100 | > 100 | 19.4 | 18.4 | > 250 |  |
| 15.6 (≈ 35 µM) | 15.6 (≈ 35 µM) | 7.8 (≈ 17.5 µM) | 15.6 (≈ 35 µM) | 7.8 (≈ 17.5 µM) | inactive | 7.8 (≈ 17.5 µM) | Nc1nc(OCc2cn(-c3n[nH]c4nc(C(F)(F)F)ccc34)nn2)cc(C(F)(F)F)n1 | 22.8 | 28.9 | > 100 | > 100 | 15.6 (≈ 35 µM) | MBC [13]: 15.6 µg/mL (≈ 35 µM); MBC [14]: 31.2 µg/mL (≈ 70.1 µM); MBC [15]: 31.2 µg/mL (≈ 70.1 µM); MBC [16]: 31.2 µg/mL (≈ 70.1 µM); MBC [17]: 7.8 µg/mL (≈ 17.5 µM); IC50 [18]: 7.8 µg/mL (≈ 17.5 µM); MBC [19]: 15.6 µg/mL (≈ 35 µM); IC50 [20]: 7.8 µg/mL (≈ 17.5 µM); MBC [21]: 31.2 µg/mL (≈ 70.1 µM); IC50 [22]: 7.8 µg/mL (≈ 17.5 µM); IC50 [23]: 7.8 µg/mL (≈ 17.5 µM); IC50 [24]: 3.9 µg/mL (≈ 8.76 µM) |
